Experimental data taken from US10047105B2, “Gyrase inhibitors” (Merck Sharp & Dohme Corp., priority 2009, dated 2018).
Converted amounts (≈) assume the structure as drawn.

What was measured:
S. pneumoniae ATCC 51916 = assay: MIC, S. pneumoniae; format: cell-based
S. aureus ATCC 13709 = assay: MIC, antibacterial potency, S. aureus; format: cell-based
[1] = S. pneumoniae (Spn52), in µg/mL

SMILES | MIC Spn52 (S. pneumoniae ATCC 51916; S. pneumoniae) | MIC, SA (S. aureus ATCC 13709; S. aureus) | MIC Spn52 (S. pneumoniae ATCC 51916; [1]) | MIC, SA (S. aureus ATCC 13709; S. aureus (SA), in µg/mL)
CCc1[nH]c2nc(Sc3cnc4cccnc4c3)nc(N3CC(C4(N)CC4)C3)c2c1Cl [700,706] | 2 µg/mL (≈ 4.42 µM) | 1 µg/mL (≈ 2.21 µM) | – | –
CCc1[nH]c2nc(Sc3cnc4nccnc4c3)nc(N3CC(C4(N)CC4)C3)c2c1Cl [700,707] | 4 µg/mL (≈ 8.83 µM) | 2 µg/mL (≈ 4.42 µM) | – | –
CCc1[nH]c2nc(Sc3ccc4nc(C)cc(C(=O)O)c4c3)nc(N3CC[C@@H](N)C3)c2c1Cl [700,708, (R)-6-(4-(3-aminopyrrolidin-1-yl)-5-chloro-6-ethyl-7H-pyrrolo[2,3-d]pyrimidin-2-ylthio)-2-methylquinoline-4-carboxylic acid] | > 64 µg/mL | 32 µg/mL (≈ 66.3 µM) | – | –
CCc1[nH]c2nc(Sc3ccc4nc[nH]c(=O)c4c3)nc(N3CC[C@@H](N)C3)c2c1Cl [700,710] | 8 µg/mL (≈ 18.1 µM) | 1 µg/mL (≈ 2.26 µM) | – | –
CCc1[nH]c2nc(Sc3ccc4c(c3)C(=O)NC4)nc(N3CC[C@@H](N)C3)c2c1Cl [700,711] | 8 µg/mL (≈ 18.7 µM) | 1 µg/mL (≈ 2.33 µM) | – | –
CCc1[nH]c2nc(Sc3cnc4ncc(=O)[nH]c4c3)nc(N3CC[C@@H](N)C3)c2c1Cl [700,712] | > 64 µg/mL | 8 µg/mL (≈ 18.1 µM) | – | –
CCc1[nH]c2nc(Sc3cnc4cccnc4c3)nc(N3CC(NC)C3)c2c1Cl [700,713] | 2 µg/mL (≈ 4.7 µM) | 1 µg/mL (≈ 2.35 µM) | – | –
CCc1[nH]c2nc(Sc3cnc4nccnc4c3)nc(N3CC(NC)C3)c2c1Cl [700,714] | 4 µg/mL (≈ 9.37 µM) | 2 µg/mL (≈ 4.68 µM) | – | –
CCc1[nH]c2nc(Sc3ccc4cc(C#N)cnc4c3)nc(N3CC[C@@H](N)C3)c2c1Cl [700,715] | 1 µg/mL (≈ 2.22 µM) | ≤ 0.5 µg/mL | – | –
CCc1[nH]c2nc(Sc3ccc4cc(C#N)cnc4c3)nc(N3CC(CN)C3)c2c1Cl [700,716] | 2 µg/mL (≈ 4.44 µM) | 1 µg/mL (≈ 2.22 µM) | – | –
CCc1[nH]c2nc(Sc3ccc4c(N)nc(C)nc4c3)nc(N3CC[C@@H](N)C3)c2c1Cl [700,717] | 4 µg/mL (≈ 8.79 µM) | 2 µg/mL (≈ 4.4 µM) | – | –
CCc1[nH]c2nc(Sc3cnc4nccnc4c3)nc(N3CCC(CN)C3)c2c1Cl.O=C(O)C(F)(F)F (stereo not shown) [700,720] | 16 µg/mL | 8 µg/mL | – | –
CCc1[nH]c2nc(Sc3cnc4nccnc4c3)nc(N3CC4CCCNC4C3)c2c1Cl.O=C(O)C(F)(F)F (stereo not shown) [700,721] | 32 µg/mL | 32 µg/mL | – | –
CCc1[nH]c2nc(Oc3cncnc3)nc(Oc3cncc(C#N)c3)c2c1Cl.O=C(O)C(F)(F)F [700,722] | 8 µg/mL | 4 µg/mL | – | –
CCc1[nH]c2nc(Oc3cncc(C#N)c3)nc(Oc3cncc(C#N)c3)c2c1Cl.O=C(O)C(F)(F)F [700,723] | 2 µg/mL | ≤ 0.5 µg/mL | – | –
CCc1[nH]c2nc(Oc3cncc(C#N)c3)nc(Oc3cncc(C#N)c3)c2c1Br.O=C(O)C(F)(F)F [700,724] | ≤ 0.5 µg/mL | ≤ 0.5 µg/mL | – | –
CCc1[nH]c2nc(Sc3cnc4nccnc4c3)nc(N3CC4[C@H](C3)[C@@]4(N)C(N)=O)c2c1Cl.O=C(O)C(F)(F)F.O=C(O)C(F)(F)F (stereo partly shown) [700,781] | 1 µg/mL | ≤ 0.5 µg/mL | – | –
CCc1[nH]c2nc(Sc3cnc4nccnc4c3)nc(N3CCNCC3)c2c1Cl.O=C(O)C(F)(F)F [700,791] | – | – | 16 | 64
CCc1[nH]c2nc(Sc3cnc4nccnc4c3)nc(N3CCC(n4c(=O)[nH]c5cc(Cl)ccc54)CC3)c2c1Cl.O=C(O)C(F)(F)F [700,792] | – | – | >64 | >64
CCc1[nH]c2nc(Oc3cncc(C#N)c3)nc(Oc3cccc(C#N)c3)c2c1Br.O=C(O)C(F)(F)F [700,793] | – | – | <=0.5 | <=0.5
CCc1[nH]c2nc(Sc3cnc4c(c3)OCCN4C)nc(N3CC(N)C3)c2c1Cl.O=C(O)C(F)(F)F [700,794] | – | – | 32 | 16
CCc1[nH]c2nc(Sc3cnc4cccnc4c3)nc(N3CC4CNC4C3)c2c1Cl.O=C(O)C(F)(F)F.O=C(O)C(F)(F)F (stereo not shown) [700,796] | – | – | 1 | <=0.5
CCc1[nH]c2nc(Sc3cnc4c(c3)ncc(=O)n4CCCN3CCCC3=O)nc(N3CC[C@@H](N)C3)c2c1Cl [700,797] | – | – | >32 | >32
CCc1[nH]c2nc(Sc3cnc4c(c3)ncc(=O)n4CCO)nc(N3CC[C@@H](N)C3)c2c1Cl [700,798] | – | – | 32 | 16
CCc1[nH]c2nc(Sc3cnc4c(c3)ncc(=O)n4C3CCNCC3)nc(N3CC[C@@H](N)C3)c2c1Cl [700,799] | – | – | >64 | >64

Second part, the compound after the results:

MIC Spn52 (S. pneumoniae ATCC 51916; S. pneumoniae) | MIC, SA (S. aureus ATCC 13709; S. aureus) | MIC Spn52 (S. pneumoniae ATCC 51916; [1]) | MIC, SA (S. aureus ATCC 13709; S. aureus (SA), in µg/mL) | SMILES
8 µg/mL (≈ 18.2 µM) | 4 µg/mL (≈ 9.09 µM) | – | – | CCc1[nH]c2nc(Sc3cnc4c(C#N)cnn4c3)nc(N3CC[C@@H](N)C3)c2c1Cl [700,718]
> 64 µg/mL | 2 µg/mL (≈ 4.26 µM) | – | – | CCc1[nH]c2nc(Sc3ccc4ccc(C(=O)O)nc4c3)nc(N3CC[C@@H](N)C3)c2c1Cl [700,719]
16 µg/mL (≈ 42.6 µM) | 8 µg/mL (≈ 21.3 µM) | – | – | CCc1[nH]c2nc(Sc3cncnc3)nc(N3CC[C@@H](N)C3)c2c1Cl [700,783]
8 µg/mL (≈ 20.6 µM) | 2 µg/mL (≈ 5.16 µM) | – | – | CCc1[nH]c2nc(Sc3cncnc3)nc(N3CC4C(N)C4C3)c2c1Cl (stereo not shown) [700,784]
64 µg/mL (≈ 165 µM) | 16 µg/mL (≈ 41.2 µM) | – | – | CCc1[nH]c2nc(Sc3cncnc3)nc(N3CC4CNC4C3)c2c1Cl (stereo not shown) [700,785]
– | – | 32 | 16 | CCc1[nH]c2nc(Sc3cncnc3)nc(N3CC(CN)C3)c2c1Cl [700,786]
– | – | 16 | 8 | CCc1[nH]c2nc(Sc3cnc(N)nc3)nc(N3CC[C@@H](N)C3)c2c1Cl [700,788]
– | – | 8 | 2 | CCc1[nH]c2nc(Sc3cnc(N)nc3)nc(N3CC4C(N)C4C3)c2c1Cl (stereo not shown) [700,789]
– | – | 64 | 16 | CCc1[nH]c2nc(Sc3cnc(N)nc3)nc(N3CC4CNC4C3)c2c1Cl (stereo not shown) [700,790]
– | – | <=0.5 | <=0.5 | CCc1[nH]c2nc(Sc3cnc4cccnc4c3)nc(N3CC4CCNC4C3)c2c1Cl (stereo not shown) [700,801]
– | – | 16 | 4 | CCc1[nH]c2nc(Sc3cncnc3)nc(N3CC4CCNC4C3)c2c1Cl (stereo not shown) [700,802]
– | – | 16 | 8 | CCc1[nH]c2nc(Sc3cnc(N)nc3)nc(N3CC4CCNC4C3)c2c1Cl (stereo not shown) [700,803]
– | – | 16 | 4 | CCc1[nH]c2nc(Sc3ccc4ccc(C(=O)O)nc4c3)nc(N3CC(CNC(=O)C4CC4)C3)c2c1Cl [700,804]
– | – | 2 | <=0.5 | CCc1[nH]c2nc(Sc3ccc4ccc(C(=O)O)nc4c3)nc(N3CC(CNC(=O)c4cn(C)nc4C(F)(F)F)C3)c2c1Cl [700,805]
– | – | 16 | 4 | CCc1[nH]c2nc(Sc3ccc4ccc(C(=O)O)nc4c3)nc(N3CC(CNS(C)(=O)=O)C3)c2c1Cl [700,806]
– | – | 8 | 2 | CCc1[nH]c2nc(Sc3ccc4ccc(C(=O)O)nc4c3)nc(N3CC(NC(=O)C4CC4)C3)c2c1Cl [700,807]
– | – | 64 | 8 | CCc1[nH]c2nc(Sc3ccc4ccc(C(=O)O)nc4c3)nc(N3CC(NS(C)(=O)=O)C3)c2c1Cl [700,808]
– | – | 4 | <=0.5 | C#CCOC(=O)NC1CN(c2nc(Sc3ccc4ccc(C(=O)O)nc4c3)nc3[nH]c(CC)c(Cl)c23)C1 [700,809]
– | – | 4 | 4 | CCc1[nH]c2nc(Sc3cnc4c(N)nc(CN5CCOCC5)nc4c3)nc(N3CC[C@@H](N)C3)c2c1Cl [700,812]
